From publication PMC6027433, “Synthesis, Evaluation of Cytotoxicity and Molecular Docking Studies of the 7-Acetamido Substituted 2-Aryl-5-bromo-3-trifluoroacetylindoles as Potential Inhibitors of Tubulin Polymerization” (Pharmaceuticals, 2018)

Columns and labels:
[1] = test system: lung cancer (A549) cells; assay: MTT dose response cytotoxicity, A549; assay type: cell-based; conditions: Homo sapiens, 48 h
Protocol: (§1) Cells were seeded as described in above. […] The medium was aspirated and replaced with 200 μL fresh medium containing the dilution of the respective test compound. The test sample were added to each well and the plates were incubated for a further 48 h at 37 °C under 5% CO2 atmosphere in a humidified incubator. After this incubation period, the medium was removed and then replaced with 100 μL fresh culture medium containing MTT at a final concentration of 0.5 mg/mL. The 96-well plates were returned to the incubator and incubated for an additional 3 h. The medium was removed and the MTT crystals were solubilized in 100 μL DMSO and the absorbance was measured at 560 nm using a Labsystems Multiwell Scanning spectrophotometer (Thermo Fischer Scientific, Edenvale, South Africa).
(§2) Quantification of live and dead cells for the screening assay was performed using the ImageXpress Micro XLS Widefield Microscope and acquired images analysed using the MetaXpress software and Multi-Wavelength Cell Scoring Application Module. Acquired data was transferred to an EXCEL spreadsheet and relative cell viability was determined using quadruplicate wells for each concentration. Untreated cells were considered to have 100% cell viability (i.e., the mean OD of the untreated wells = 100% viability). Cell viabilities in other test wells were calculated relative to the untreated control and expressed as a percentage. Dose response analysis was performed using the statistical software GraphPad Prism and IC50 values calculated from the concentration-response data using a mathematical Hill function.

[2] = test system: cervical cancer (HeLa) cells; assay: MTT dose response cytotoxicity, HeLa; assay type: cell-based; conditions: Homo sapiens, 48 h
Protocol: as §1, §2

[3] = test system: A549 cancer cells; assay: Two-concentration cytotoxicity screen (Hoechst 33342/PI imaging), A549; assay type: cell-based; conditions: 10 μM and 100 μM, 48 h
Protocol: (§3) The HeLa and A549 cancer cells were initially exposed to two concentrations of each test compound (10 μM and 100 μM) for 48 h with a well-known chemotherapeutic drug, Melphalan, used as a reference standard at the same concentrations (Table 2 and Table 3). Acquisition was performed using the ImageXpress Micro XLS Widefield Microscope and the acquired images were analyzed using the MetaXpress software and Multi-Wavelength Cell Scoring Application Module (see Figure S2 in the Supplementary Information for cell viability percentages for each compound). The structure activity relationship (SAR) of these compounds has been evaluated with respect to the substitution patterns on the 2-phenyl ring, C-3 and C-7 positions.
(§4) The human cervical cancer cell line, HeLa, and lung cancer cell line, A549 were used for the screening assay. HeLa cells were grown and maintained in RPMI 1640 medium supplemented with 10% fetal bovine serum (FBS) and A549 cells were grown and maintained in EMEM supplemented with 10% FBS and 10% non-essential amino acids. In the case of screening experiments, the cells were seeded into 96 well microtiter plates at a density of 6000 cells/well to a total volume of 200 μL per well. The microtiter plates were incubated at 37 °C, 5% CO2, and 100% relative humidity for 24 h to allow for cell attachment. Each of the test compounds was first reconstituted in DMSO at a concentration of 40 mM and then stored at 4 °C prior to use and final dilution to working concentrations with culture complete medium on the day of treatment. Two hundred microliters aliquots of the diluted compound in fresh medium was used to treat cells after aspiration of seeding medium. Each of the cell lines was incubated for 48 h at 37 °C in a humidified incubator under 5% CO2 atmosphere. Treatment medium was aspirated from all wells and replaced with 100 μL of Hoechst 33342 nuclear dye (5 μg/mL) and incubated for 10 min at room temperature. Thereafter, cells were stained with propidium iodide (PI) at 100 μg/mL in order to enumerate the proportion of dead cells within the population. […]
as §2, with “Untreated cells were considered to have 100% cell viability (i.e., the mean OD of the untreated wells = 100% viability).” left out

[4] = test system: HeLa cancer cells; assay: Two-concentration cytotoxicity screen (Hoechst 33342/PI imaging), HeLa; assay type: cell-based; conditions: 10 μM and 100 μM, 48 h
Protocol: as §3, §4
as §2, with “Untreated cells were considered to have 100% cell viability (i.e., the mean OD of the untreated wells = 100% viability).” left out

[5] = test system: HeLa cells; assay: Caspase 8 and 3 activation (immunochemical), HeLa; assay type: cell-based, human; conditions: 24 h exposure at IC50 values
Protocol: (§5) Several distinctive mechanisms of cancer cell death such as apoptosis, necrosis, autophagy and cornification have been identified, and these are characterized by differences in morphology and biochemical changes. A major biochemical feature of apoptosis is the activation of caspases, which plays a central role in the morphological changes associated with apoptosis. Caspase activation was determined using immunochemical methods and the antibodies against activated caspase 8 and caspase 3. […] Activated caspase 8 can be used as a convenient indicator of involvement of the extrinsic death receptor pathway of apoptosis. Executioner caspases including caspase 3 are, in turn, activated by the initiator caspases. This protein is either partially or totally responsible for the cleavage of many key proteins such as PARP, DNA protein kinases and retinoblastoma protein [25]. […] This was true for both activated caspase 8 and 3. A more distinct increase was evident with caspase 3 albeit less pronounced than that of 4c and the increase was expected as caspase 3 is activated by initiator caspase including caspase 8, which is a later event in apoptosis. […] Prolonged treatment of the cells with compounds 5e–h for 48 h or more, for example, would probably result in significant effects. We also evaluated compound 5g for potential to induce other key apoptotic biochemical features such as phosphatidylserine (PS) translocation, cell cycle arrest and mitochondrial membrane depolarization.
(§6) Compounds 4c and 5g were selected for mechanism studies and these test compounds were reconstituted in dimethyl sulphoxide (DMSO) to give a final concentration of 40 mM. Samples were stored at 4 °C until required. […]
(§7) Quantification of live and dead cells for the assay was performed using the ImageXpress Micro XLS Widefield Microscope and acquired images analysed using the MetaXpress software and Multi-Wavelength Cell Scoring Application Module and the Cell Cycle Module. Acquired data was transferred to an EXCEL spreadsheet and data was analysed and processed.

[6] = test system: A549 cells; assay: Caspase 8 and 3 activation (immunochemical), A549; assay type: cell-based, human; conditions: 24 h exposure at IC50 values
Protocol: as §5, §6, §7

[7] = test system: neurotesin receptor type 2 (NTS2); set-up: method as in PMID 25157640; conditions: cited from earlier work

Row | SMILES | melting point [°C] | IC50 [1] [µM] | IC50 [2] [µM] | Cytotoxicity (percentage live cells compared to untreated control) [3] | Cytotoxicity (percentage live cells compared to untreated control) [4] | Caspase 8 and 3 activation (% change in mean integrated fluorescence intensity of the untreated control) [5] | Caspase 8 and 3 activation (% change in mean integrated fluorescence intensity of the untreated control) [6] | fold more active than the expected C-3 unsubstituted analogue ([7]; NTS2) [fold] | IC50 [7] [µM]
1 | COc1ccc(-c2cc3cc(Br)cc(NC(C)=O)c3[nH]2)cc1 [Compound 4d, N-[5-Bromo-2-(4-methoxyphenyl)-1H-indol-7-yl]acetamide] |  | 146.8 ± 1 | 125 ± 0.88 | modest cytotoxicity | modest cytotoxicity |  |  |  | 
2 | CC(=O)c1cc(Br)cc2cc(-c3ccc(F)cc3)[nH]c12 [Compound 2b, 1-[5-Bromo-2-(4-fluorophenyl)-1H-indol-7-yl]ethanone] | 171 to 173 | > 200 | > 200 |  |  |  |  |  | 
3 | CC(=O)Nc1cc(Br)cc2cc(-c3ccccc3)[nH]c12 [Compound 4a, N-(5-Bromo-2-phenyl-1H-indol-7-yl)acetamide] |  | > 200 | > 200 | Lack of cytotoxicity | Lack of cytotoxicity |  |  |  | 
4 | N[C@@H](Cc1ccc(N(CCCl)CCCl)cc1)C(=O)O [Melphalan, reference compound] |  | 30.7 ± 0.76 | 37.16 ± 0.22 |  |  | clear increases | clear increases |  | 
5 | Cc1ccc(S(=O)(=O)Nc2ccc3c(c2)c(C(=O)C(F)(F)F)cn3CC(=O)N[C@@H](CC(C)C)C(=O)O)cc1 [NTRC-824, N-[(5-{[(4-methylphenyl)sulfonyl]amino}-3-(trifluoroacetyl)-1H-indol-1-yl)acetyl]-L-leucine] |  |  |  |  |  |  |  | 90 | 0.038
6 | CC(=O)c1cc(Br)cc2cc(-c3ccccc3)[nH]c12 [Compound 2a, 1-(5-Bromo-2-phenyl-1H-indol-7-yl)ethanone] | 139 to 142 | > 200 | > 200 |  |  |  |  |  | 
7 | CC(=O)Nc1cc(Br)cc2cc(-c3ccc(F)cc3)[nH]c12 [Compound 4b, N-[5-Bromo-2-(4-fluorophenyl)-1H-indol-7-yl]acetamide] |  | 116.2 ± 0.78 | 122.4 ± 1.02 | modest cytotoxicity | modest cytotoxicity |  |  |  | 
8 | CC(=O)Nc1cc(Br)cc2cc(-c3cccc(Cl)c3)[nH]c12 [Compound 4c, N-(5-Bromo-2-(3-chlorophenyl)-1H-indol-7-yl)acetamide] |  | 154.6 ± 0.9 | 126.9 ± 1 | modest cytotoxicity | modest cytotoxicity | clear increases | clear increases |  | 
9 | CC(=O)c1cc(Br)cc2cc(-c3cccc(Cl)c3)[nH]c12 [Compound 2c, 1-[5-Bromo-2-(3-chlorophenyl)-1H-indol-7-yl]ethanone] | 140 to 143 | > 200 | > 200 |  |  |  |  |  | 
10 | COc1ccc(-c2cc3cc(Br)cc(C(C)=O)c3[nH]2)cc1 [Compound 2d, 1-[5-Bromo-2-(4-methoxyphenyl)-1H-indol-7-yl]ethanone] | 140 to 142 | > 200 | > 200 |  |  |  |  |  | 

Further lines, with some results ahead:

Row | melting point [°C] | SMILES | IC50 [1] [µM] | IC50 [2] [µM] | Cytotoxicity (percentage live cells compared to untreated control) [3] | Cytotoxicity (percentage live cells compared to untreated control) [4] | Caspase 8 and 3 activation (% change in mean integrated fluorescence intensity of the untreated control) [5] | Caspase 8 and 3 activation (% change in mean integrated fluorescence intensity of the untreated control) [6] | fold more active than the expected C-3 unsubstituted analogue ([7]; NTS2) [fold] | IC50 [7] [µM]
11 | 141 to 144 | CC(=O)Nc1cc(Br)cc2c(C(=O)C(F)(F)F)c(-c3ccccc3)[nH]c12 [Compound 5e, N-[5-Bromo-2-phenyl-3-trifluoroacetyl-1H-indol-7-yl]acetamide] | 9.94 ± 0.99 | 12.9 ± 1.11 |  |  |  |  |  | 
12 | 175 to 176 | CC(=O)c1cc(Br)cc2c(C(=O)C(F)(F)F)c(-c3ccccc3)[nH]c12 [Compound 5a, 1-(7-Acetyl-5-bromo-2-phenyl-1H-indol-3-yl)-2,2,2-trifluoroethanone] | > 200 | > 200 |  |  |  |  |  | 
13 | 170 to 173 | COc1ccc(-c2[nH]c3c(C(C)=O)cc(Br)cc3c2C(=O)C(F)(F)F)cc1 [Compound 5d, 1-[7-Acetyl-5-bromo-2-(4-methoxyphenyl)-1H-indol-3-yl]-2,2,2-trifluoroethanone] | > 200 | > 200 |  |  |  |  |  | 
14 | 168 to 171 | CC(=O)c1cc(Br)cc2c(C(=O)C(F)(F)F)c(-c3ccc(F)cc3)[nH]c12 [Compound 5b, 1-[7-Acetyl-5-bromo-2-(4-fluorophenyl)-1H-indol-3-yl]-2,2,2-trifluoroethanone] | > 200 | > 200 |  |  |  |  |  | 
15 | 195 to 197 | CC(=O)Nc1cc(Br)cc2c(C(=O)C(F)(F)F)c(-c3ccc(F)cc3)[nH]c12 [Compound 5f, N-[5-Bromo-2-(4-fluorophenyl)-3-trifluoroacetyl-1H-indol-7-yl]acetamide] | 5.03 ± 0.71 | 7.95 ± 0.9 |  |  |  |  |  | 
16 | 138 to 141 | CC(=O)c1cc(Br)cc2c(C(=O)C(F)(F)F)c(-c3cccc(Cl)c3)[nH]c12 [Compound 5c, 1-[7-Acetyl-5-bromo-2-(3-chlorophenyl)-1H-indol-3-yl]-2,2,2-trifluoroethanone] | > 200 | > 200 |  |  |  |  |  | 
17 | 179 to 182 | COc1ccc(-c2[nH]c3c(NC(C)=O)cc(Br)cc3c2C(=O)C(F)(F)F)cc1 [Compound 5h, N-[5-Bromo-2-(4-methoxyphenyl)-3-trifluoroacetyl-1H-indol-7-yl]acetamide] | 3.26 ± 0.51 | 10.7 ± 1.03 |  |  |  |  |  | 
